This note sets out measurements from patent publication US20240279218A1 (Hoffmann-La Roche Inc., priority 2016, published 2024).

Experiment [1] addresses T1, h-GABA-A α5β3γ2 (Homo sapiens (Human), UniProt P18507+P31644). Briefly: Two-electrode voltage clamp electrophysiology in Xenopus oocytes expressing GABAA receptors, modulation of GABA EC20 current. It counts as cell-based. The following applies: Xenopus oocytes; for Efficacy (GABA) %: % modulation of GABA EC20 = 100*(Fold increase−1); for Fold increase h-GABA-A α5β3γ2 oocyte: GABA EC20, test compound at approx. 30 fold its Ki. In outline: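 Values are % modulation of an EC20 GABA response, derived point by point from the ratio of compound-exposed versus control current traces (extremum taken, 100×(fold−1)). Recordings used oocytes injected with human α5, β3, γ2 mRNA, clamped at −80 mV at room temperature, at least 3 oocytes each.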
(In general: Two-electrode voltage clamp holds a large cell at a set potential and records current.)

Experiment [2] addresses T1, h-GABA-A α5β3γ2. Description: [3H]flumazenil competition binding assay, membranes of HEK293 cells expressing human GABAA receptors. The following applies: displacement of [3H]flumazenil 0.5 nM, HEK293 cells expressing human receptors, mean of two determinations; read-out: Ki h-GABA-A α5β3γ2. In outline: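 Displacement of [3H]flumazenil from membranes of HEK293 cells transiently expressing human α5β3γ2 receptors, in Krebs-tris buffer pH 7.5. Incubation to equilibrium, 1 h at 4° C., then filtration and scintillation counting. Ki is the mean of two determinations.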

As a reminder, the Ki is a dissociation constant, usually derived from enzyme kinetics or from competition with a known ligand. Take `Cc1ccc(-c2noc(C)c2COc2cc3c(cn2)C(=O)N(C2CCSCC2)C3)cn1` [Example 107, 6-((5-methyl-3-(6-methylpyridin-3-yl)isoxazol-4-yl)methoxy)-2-(tetrahydro-2H-thiopyran-4-yl)-1H-pyrrolo[3,4-c]pyridin-3(2H)-one]: on h-GABA-A α5β3γ2 [1], the “Efficacy (GABA) %” value was 69% and the “Fold increase h-GABA-A α5β3γ2 oocyte” value is recorded as 1.69. At h-GABA-A α5β3γ2 [2], the Ki was found to be 9.6 nM.

Take `Cc1ccc(-c2noc(C)c2COc2ccc(C(=O)NC3CCOCC3)cn2)nn1` [Example 108, 6-((5-methyl-3-(6-methylpyridazin-3-yl)isoxazol-4-yl)methoxy)-N-tetrahydropyran-4-yl-pyridine-3-carboxamide]: on h-GABA-A α5β3γ2 [1], the “Efficacy (GABA) %” value is reported as 20% and the “Fold increase h-GABA-A α5β3γ2 oocyte” value is on record as 1.2. Besides, at h-GABA-A α5β3γ2 [2], the Ki came to 0.4 nM.

As for `CCC[C@@H](CO)NC(=O)c1ccc(OCc2c(-c3ccc(C)nn3)noc2C)nc1` [Example 109, N-((1S)-1-(hydroxymethyl)butyl)-6-((5-methyl-3-(6-methylpyridazin-3-yl)isoxazol-4-yl)methoxy)pyridine-3-carboxamide], at h-GABA-A α5β3γ2 [1], the “Efficacy (GABA) %” value was determined as 42% and the “Fold increase h-GABA-A α5β3γ2 oocyte” value amounted to 1.42. Also, the Ki at h-GABA-A α5β3γ2 [2] was determined as 0.8 nM.

For the compound `Cc1ccc(-c2noc(C)c2COc2ccc(C(=O)NC3(C)CCSCC3)nn2)cn1` [Example 110, 6-((5-methyl-3-(6-methylpyridin-3-yl)isoxazol-4-yl)methoxy)-N-(4-methyltetrahydrothiopyran-4-yl)pyridazine-3-carboxamide], at h-GABA-A α5β3γ2 [1], the “Efficacy (GABA) %” value was determined as 65% and the “Fold increase h-GABA-A α5β3γ2 oocyte” value is reported as 1.65. Further, the Ki at h-GABA-A α5β3γ2 [2] came out at 15.5 nM.

On to `Cc1ccc(-c2noc(C)c2COc2ccc(C(=O)NC3(C)CCS(=O)(=O)CC3)nn2)cn1` [Example 111, N-(4-methyl-1,1-dioxidotetrahydro-2H-thiopyran-4-yl)-6-((5-methyl-3-(6-methylpyridin-3-yl)isoxazol-4-yl)methoxy)pyridazine-3-carboxamide], for which, at h-GABA-A α5β3γ2 [1], the “Efficacy (GABA) %” value worked out at 89% and the “Fold increase h-GABA-A α5β3γ2 oocyte” value is listed as 1.89. The Ki at h-GABA-A α5β3γ2 [2] was 4.6 nM.

As to `Cc1ccc(-c2noc(C)c2COc2ccc(C(=O)N3CC4(C3)CS(=O)(=O)C4)nn2)cn1` [Example 112, (2,2-dioxido-2-thia-6-azaspiro[3.3]heptan-6-yl)(6-((5-methyl-3-(6-methylpyridin-3-yl)isoxazol-4-yl)methoxy)pyridazin-3-yl)methanone], at h-GABA-A α5β3γ2 [1], the “Efficacy (GABA) %” value is 43% and the “Fold increase h-GABA-A α5β3γ2 oocyte” value is listed as 1.43. For the same compound, on h-GABA-A α5β3γ2 [2], the Ki stood at 6.5 nM.

As to `Cc1ccc(-c2noc(C)c2COc2cnc(C(=O)N3CC4(C3)CS(=O)(=O)C4)cn2)cn1` [Example 113, (2,2-dioxido-2-thia-6-azaspiro[3.3]heptan-6-yl)(5-((5-methyl-3-(6-methylpyridin-3-yl)isoxazol-4-yl)methoxy)pyrazin-2-yl)methanone], on h-GABA-A α5β3γ2 [1], the “Efficacy (GABA) %” value is 28% and the “Fold increase h-GABA-A α5β3γ2 oocyte” value turned out to be 1.28. The inhibition constant (Ki) on h-GABA-A α5β3γ2 [2] was found to be 33.8 nM.

For `Cc1ccc(-c2noc(C)c2COc2ccc(C(=O)NC3(C)CCCC3)nn2)cn1` [Example 114, 6-((5-methyl-3-(6-methylpyridin-3-yl)isoxazol-4-yl)methoxy)-N-(1-methylcyclopentyl)pyridazine-3-carboxamide], at h-GABA-A α5β3γ2 [1], the “Efficacy (GABA) %” value is 74% and the “Fold increase h-GABA-A α5β3γ2 oocyte” value turned out to be 1.74. At h-GABA-A α5β3γ2 [2], the Ki is 28.1 nM.

Turning to `Cc1ccc(-c2noc(C)c2COc2cnc(C(=O)NCCCC(F)(F)F)cn2)cn1` [Example 115, 5-((5-methyl-3-(6-methylpyridin-3-yl)isoxazol-4-yl)methoxy)-N-(4,4,4-trifluorobutyl)pyrazine-2-carboxamide], on h-GABA-A α5β3γ2 [1], the “Efficacy (GABA) %” value turned out to be 139% and the “Fold increase h-GABA-A α5β3γ2 oocyte” value was 2.39. In addition, the Ki at h-GABA-A α5β3γ2 [2] is 51.6 nM.

For the compound `Cc1ccc(-c2noc(C)c2COc2ccc(C(=O)NC3CN(C(C)C)C3)nn2)cn1` [Example 116, N-(1-isopropylazetidin-3-yl)-6-((5-methyl-3-(6-methylpyridin-3-yl)isoxazol-4-yl)methoxy)pyridazine-3-carboxamide], on h-GABA-A α5β3γ2 [1], the “Efficacy (GABA) %” value was found to be 59% and the “Fold increase h-GABA-A α5β3γ2 oocyte” value is 1.59. For the same compound, the Ki on h-GABA-A α5β3γ2 [2] worked out at 4.9 nM.

As to `Cc1ccc(-c2noc(C)c2COc2cc3c(cn2)C(=O)N(C2CC4(COC4)C2)C3)cn1` [Example 117, 6-((5-methyl-3-(6-methylpyridin-3-yl)isoxazol-4-yl)methoxy)-2-(2-oxaspiro[3.3]heptan-6-yl)-1H-pyrrolo[3,4-c]pyridin-3(2H)-one], at h-GABA-A α5β3γ2 [1], the “Efficacy (GABA) %” value amounted to 99% and the “Fold increase h-GABA-A α5β3γ2 oocyte” value is 1.99. The Ki at h-GABA-A α5β3γ2 [2] was 15.6 nM.

Regarding `Cc1ccc(-c2noc(C)c2COc2ccc(C(=O)NC3(C)CCC3)nn2)cn1` [Example 118, 6-((5-methyl-3-(6-methylpyridin-3-yl)isoxazol-4-yl)methoxy)-N-(1-methylcyclobutyl)pyridazine-3-carboxamide], at h-GABA-A α5β3γ2 [1], the “Efficacy (GABA) %” value was found to be 88% and the “Fold increase h-GABA-A α5β3γ2 oocyte” value is given as 1.88. The inhibition constant (Ki) on h-GABA-A α5β3γ2 [2] was determined as 12.3 nM.

On to `CCc1onc(-c2ccc(C)nc2)c1COc1ccc(C(=O)NC2CCOCC2)cn1` [Example 119, 6-((5-ethyl-3-(6-methylpyridin-3-yl)isoxazol-4-yl)methoxy)-N-tetrahydropyran-4-yl-pyridine-3-carboxamide], for which, at h-GABA-A α5β3γ2 [1], the “Efficacy (GABA) %” value is 102% and the “Fold increase h-GABA-A α5β3γ2 oocyte” value turned out to be 2.02. Besides, the Ki at h-GABA-A α5β3γ2 [2] is 31 nM.

`CCc1onc(-c2ccc(C)nc2)c1COc1ccc(C(=O)NC2CCS(=O)(=O)CC2)cn1` [Example 120, N-(1,1-dioxidotetrahydro-2H-thiopyran-4-yl)-6-((5-ethyl-3-(6-methylpyridin-3-yl)isoxazol-4-yl)methoxy)pyridine-3-carboxamide]: on h-GABA-A α5β3γ2 [1], the “Efficacy (GABA) %” value was determined as 160% and the “Fold increase h-GABA-A α5β3γ2 oocyte” value is 2.6. Besides, the inhibition constant Ki at h-GABA-A α5β3γ2 [2] is 52.1 nM.

Regarding `CCc1onc(-c2ccc(C)nc2)c1COc1ccc(C(=O)NC2CCOCC2)nn1` [Example 121, 6-((5-ethyl-3-(6-methylpyridin-3-yl)isoxazol-4-yl)methoxy)-N-(tetrahydropyran-4-yl)pyridazine-3-carboxamide], at h-GABA-A α5β3γ2 [1], the “Efficacy (GABA) %” value is 109% and the “Fold increase h-GABA-A α5β3γ2 oocyte” value came out at 2.09. Also, on h-GABA-A α5β3γ2 [2], the Ki was determined as 40.3 nM.

For the compound `CCc1onc(-c2ccc(C)nc2)c1COc1ccc(C(=O)NC2(C)COC2)nn1` [Example 122, 6-((5-ethyl-3-(6-methylpyridin-3-yl)isoxazol-4-yl)methoxy)-N-(3-methyloxetan-3-yl)pyridazine-3-carboxamide], at h-GABA-A α5β3γ2 [1], the “Efficacy (GABA) %” value is 126% and the “Fold increase h-GABA-A α5β3γ2 oocyte” value came out at 2.26. Moreover, the Ki at h-GABA-A α5β3γ2 [2] turned out to be 26.4 nM.

`CCc1onc(-c2ccc(C)nc2)c1COc1ccc(C(=O)NC2CC2)nn1` [Example 123, N-cyclopropyl-6-((5-ethyl-3-(6-methylpyridin-3-yl)isoxazol-4-yl)methoxy)pyridazine-3-carboxamide]: at h-GABA-A α5β3γ2 [1], the “Efficacy (GABA) %” value was determined as 106% and the “Fold increase h-GABA-A α5β3γ2 oocyte” value is 2.06. Besides, the Ki at h-GABA-A α5β3γ2 [2] was 22.1 nM.
